Laboratory results from patent publication US11917960B2, “Methods to improve genetic transformation of sorghum” (Commonwealth Scientific and Industrial Research Organisation, priority 2016, dated 2024).
Marks after values point to notes of the source that are not given here.

How the values were obtained:
Format in all cases: cell-based, Sorghum bicolor L
[1] = tested on: DEC tissues/somatic embryos; assay: Sensitivity of DEC tissues/somatic embryos to Geneticin; conditions: for Green DEC tissue survival (%): CIM + 1 mg/l LA, 6 weeks culture
Procedure: The experiment was carried out using 6 weeks-old uniform, healthy green-coloured DEC tissues about 5 mm in size and which contained some somatic embryos, produced after culturing on CIM containing 1 mg/l LA. The Geneticin levels used were 0, 15, 25, 35 and 45 mg/L, respectively. Three replicates each of 15 green DEC tissue pieces per plate were used for each concentration of Geneticin tested. The tissues were cultured for 6 weeks, being subcultured every two weeks onto the same medium, including the same Geneticin concentrations.
After 6 weeks of culture, the number of green DEC tissues that had survived was counted.
DEC tissues (about 5 mm) began to display geneticin stress symptoms on selective callus induction media (CIM with geneticin) within 3 weeks of culture. […] Very few calli (2-6) survived with dead patches. On this basis, geneticin at a final concentration of 25 mg/i was used in the callus induction media for 3 cycles (2 weeks each) and then increased to 30 mg/i for one cycle in shoot induction media (Table 6). Different concentrations of geneticin in CIM and SIM was deemed optimal in preventing shoot regeneration from non-transformed callus.

DEC tissue of sorghum = assay: Regeneration frequency and number of shoots per DEC tissue on SIM and SRM; conditions: for Number of shoots/callus / Regeneration frequency (%): LA in SIM and SRM, mean ± SD
Procedure: After six weeks on the CIM, some uniform green-coloured DEC tissue of about 4-7 mm diameter were transferred on to shoot induction medium (SIM) and cultured for another 2-3 weeks in order to begin organogenesis. Tissues which had induced shoot buds were then transferred to shoot regeneration medium (SRM) and again cultured for 2-3 weeks. Regenerability of DEC tissue of different ages (2-6 months from initiation) was also tested on SRM medium comprising different concentrations of BAP (0.5-1.0 mg/l) and TDZ (0.5-1.0 mg/l). The number of shoots were counted and the regeneration frequency (i.e. the number of shoots/DEC tissue) was calculated after 3 weeks culture on SRM (total of approximately 5 weeks culture inclusive of culture on SIM and SRM). Individual shoots approximately 2-3 cm in length were transferred to shoot out growth (SOG) medium and cultured for another 2-3 weeks. Well-developed shoots (4-5 cm in length), were carefully separated from the cluster and transferred to root induction medium (RIM) and cultured for 3-4 weeks. For shoot induction to complete plant regeneration, 50-60 μmol s^−1 m^−2 (16 h/day) fluorescent light was used in the tissue culture room at 24±2° C. Shoots (about 8 cm in length) with numerous (often 15-20) healthy looking roots were transferred to soil and grown to maturity in a PC2 glasshouse at […]. The optimized culture medium composition for the different stages of plant transformation from callus induction to plant regeneration from green tissue induced from immature embryos is presented in Table 1.
Uniform ready-to-use high quality green DEC tissues (5 mm) each with nodular structures induced on CIM medium with or without added LA were transferred to shoot induction medium (SIM) with and without LA and cultured for another 2-3 weeks. Tissues with induced shoot buds were then transferred to shoot regeneration medium (SRM) with or without added LA and again cultured for 2 weeks. Regenerability of green tissues of different ages (2-6 months from initiation) was tested on SRM medium containing different concentrations of BAP (0.5-1.0 mg/l) and TDZ (0.5-1.0 mg/l). Tissues including the shoot buds were again cultured on hormone free medium (SOG) with or without LA. The number of shoots was counted after 2 weeks of culture on SRM and the regeneration frequency (number of shoots/DEC tissue) calculated.

immature embryos (IEs) [2] = assay: DEC tissue induction from immature embryos on CIM with or without LA; conditions: for Green tissue induction frequency: CIM + 1 mg/l LA, 6 weeks culture, mean ± SD, frequency calculated as a percentage, in %
Procedure: Plants of the grain sorghum of the inbred cultivar TX-430 (Miller 1984) were grown in a plant growth chamber (Conviron, PGC-20 flex) at 28±1° C. “day” temperature and 20±1° C. “night” temperature, with a. 16 hr photoperiod at a light intensity during the “day” of 900-1000 LUX. Panicles were covered with white translucent paper bags before flowering. Immature embryos were harvested from panicles 12-15 days after anthesis. Panicles were washed several times with water and developing seeds that were uniform in size were isolated and surface-sterilized using 20% commercial bleach mixed with 0.1% Tween-20 for 15-20 min. They were then washed with sterile distilled water 3 times each for 20 min, and blotted dry in a laminar flow hood. Immature embryos (IEs) ranging from 1.4 to 2.5 mm in length were aseptically isolated in the laminar flow hood and used as the starting tissue for preparation of green regenerative tissue.
The isolated IEs ranging from 1.4 to 2.5 mm in length were placed onto callus induction media (CIM) of various compositions with their scutellum facing upward. CIM modified to improve callus quality and induction frequency from immature embryos, as well as callus regeneration media, included α-Lipoic acid (1 to 5 mg/1), Melatonin (5 to 10 mg/l) and 2-Aminoidan-2-phosphonic acid HCl (1 to 2 mg/l) unless otherwise stated. For the development of green tissue, immature embryos were incubated under fluorescent light of approximately 45-50 μmol s^−1 m^−2 (16 h/day) in a tissue culture room at 24±2° C. After three days of culture, the root and shoot poles of the immature embryos were aseptically separated and re-inoculated on to the same media (CIM) and maintained under the same conditions as described above. They were subcultured every two weeks for 6 weeks by chopping the callus into 2-3 mm portions, re-inoculating on to the same media (CIM) and maintaining under the same conditions described above, after which time the tissue cultures were evaluated for callus quality, callus induction efficiency and transformation efficiency. Callus induction frequency was calculated as the number of calli obtained (˜5 mm) over total number of immature embryos inoculated, as a percentage.
Sets of IEs ranging from 1.4 to 2.5 mm in length, each set isolated from one panicle, were aseptically isolated and cultured on CIM medium as described in Example 1. Some sets were cultured with the addition of α-Lipoic acid (LA, 1 mg/I or 5 mg/), others without, in order to determine the effect of this agent.
After 6 weeks of culture including subculture every two weeks onto the same medium, DEC tissue induction frequency and quality were evaluated. […]

immature embryos (IEs) [3] = assay: DEC tissue yield on CIM with or without LA; conditions: for DEC yield in number ~5 mm each: CIM + 1 mg/l LA, 45 IEs
Source text: After 4 to 12 weeks of culture, the number of DEC tissues obtained were counted. The number of DEC tissue pieces (˜5 mm) obtained at 12 weeks on CIM with LA was almost double when compared to using CIM without LA. Furthermore, the quality of the DEC tissues obtained on CIM with LA was improved compared to using the medium without LA.

[4] = after 8 weeks on CIM with G25 and 35 mg/l

Structure (SMILES): CN[C@@H]1[C@@H](O)[C@@H](O[C@@H]2[C@@H](O)[C@H](O[C@H]3O[C@H]([C@@H](C)O)[C@@H](O)[C@H](O)[C@H]3N)[C@@H](N)C[C@H]2N)OC[C@]1(C)O [Geneticin]
- Green DEC tissue survival (%) ([1]; Geneticin 15 mg/l): 80 ± 1.0%
- Green DEC tissue survival (%) ([1]; Geneticin 25 mg/l): 4 ± 2.6%
- Green DEC tissue survival (%) ([1]; Geneticin 35 mg/l): 2 ± 0.5%
- Green DEC tissue survival (%) ([1]; Geneticin 45 mg/l): 0%
- Appearance of calli [1, 4]: most of the calli turned dark brown in colour with no signs of survival
- Number of calli survived with dead patches [1, 4]: 2-6
- Time until DEC tissues began to display geneticin stress symptoms ([1]; selective callus induction media (CIM with geneticin)): ≤ 3 weeks

Structure (SMILES): O=C(O)CCCCC1CCSS1 (stereo not drawn) [LA, α-Lipoic acid]
- Number of shoots/callus (DEC tissue of sorghum; DEC tissue age 2 months): 40 ± 4.5^b
- Regeneration frequency (%) (DEC tissue of sorghum; DEC tissue age 2 months): 97.6 ± 2.5%
- Number of shoots/callus (DEC tissue of sorghum; DEC tissue age 4 months): 40 ± 1.5^d
- Regeneration frequency (%) (DEC tissue of sorghum; DEC tissue age 4 months): 97 ± 2.6 %
- Number of shoots/callus (DEC tissue of sorghum; DEC tissue age 6 months): 33 ± 2.5^f
- Regeneration frequency (%) (DEC tissue of sorghum; DEC tissue age 6 months): 94.3 ± 2.0 %
- Regeneration frequency and number of shoots/DEC tissue for different ages of DEC tissue (DEC tissue of sorghum; LA included in both SIM and SRM, versus without LA): did not decline as much
- DEC tissue induction at higher concentration of LA compared to 1 mg/ml (immature embryos (IEs) [2]; LA 5 mg/l in CIM): no significant further improvement
- Green tissue induction frequency (immature embryos (IEs) [2]; immature embryo size 1.5-2 mm): 79.0 ± 6.5
- Green tissue induction frequency (immature embryos (IEs) [2]; immature embryo size >2 mm): 59.0 ± 5.5
- DEC tissue induction frequency compared to CIM without LA (immature embryos (IEs) [2]; small immature embryos (1.5-2 mm), significant at p<0.01): greater
- Number of DEC tissue pieces (~5 mm) compared to CIM without LA (immature embryos (IEs) [3]; 12 weeks on CIM with LA): almost double
- DEC yield in number ~5 mm each (immature embryos (IEs) [3]; culturing time 4 weeks): 36
- DEC yield in number ~5 mm each (immature embryos (IEs) [3]; culturing time 6 weeks): 90
- DEC yield in number ~5 mm each (immature embryos (IEs) [3]; culturing time 8 weeks): 120
- DEC yield in number ~5 mm each (immature embryos (IEs) [3]; culturing time 10 weeks): 218
- DEC yield in number ~5 mm each (immature embryos (IEs) [3]; culturing time 12 weeks): 825
